Test results reported in ChEMBL document CHEMBL1629456, “ApoA-I mimetic peptides promote pre-β HDL formation in vivo causing remodeling of HDL and triglyceride accumulation at higher dose” (Bioorg Med Chem, 2010).
Where a SMILES comes first, the peptide text is derived from it. [ ]: non-standard residue; d: D form. dGly(6-heptenyl) = C=CCCCCC[C@@H](N)C(=O)O; Ala(5-hexenyl) = C=CCCCCC[C@H](N)C(=O)O; Gly(octyl) = CCCCCCCC[C@H](N)C(=O)O

Target: Phospholipid-transporting ATPase ABCA1 (Mus musculus, UniProt P41233)
Sequence (P41233 whole entry): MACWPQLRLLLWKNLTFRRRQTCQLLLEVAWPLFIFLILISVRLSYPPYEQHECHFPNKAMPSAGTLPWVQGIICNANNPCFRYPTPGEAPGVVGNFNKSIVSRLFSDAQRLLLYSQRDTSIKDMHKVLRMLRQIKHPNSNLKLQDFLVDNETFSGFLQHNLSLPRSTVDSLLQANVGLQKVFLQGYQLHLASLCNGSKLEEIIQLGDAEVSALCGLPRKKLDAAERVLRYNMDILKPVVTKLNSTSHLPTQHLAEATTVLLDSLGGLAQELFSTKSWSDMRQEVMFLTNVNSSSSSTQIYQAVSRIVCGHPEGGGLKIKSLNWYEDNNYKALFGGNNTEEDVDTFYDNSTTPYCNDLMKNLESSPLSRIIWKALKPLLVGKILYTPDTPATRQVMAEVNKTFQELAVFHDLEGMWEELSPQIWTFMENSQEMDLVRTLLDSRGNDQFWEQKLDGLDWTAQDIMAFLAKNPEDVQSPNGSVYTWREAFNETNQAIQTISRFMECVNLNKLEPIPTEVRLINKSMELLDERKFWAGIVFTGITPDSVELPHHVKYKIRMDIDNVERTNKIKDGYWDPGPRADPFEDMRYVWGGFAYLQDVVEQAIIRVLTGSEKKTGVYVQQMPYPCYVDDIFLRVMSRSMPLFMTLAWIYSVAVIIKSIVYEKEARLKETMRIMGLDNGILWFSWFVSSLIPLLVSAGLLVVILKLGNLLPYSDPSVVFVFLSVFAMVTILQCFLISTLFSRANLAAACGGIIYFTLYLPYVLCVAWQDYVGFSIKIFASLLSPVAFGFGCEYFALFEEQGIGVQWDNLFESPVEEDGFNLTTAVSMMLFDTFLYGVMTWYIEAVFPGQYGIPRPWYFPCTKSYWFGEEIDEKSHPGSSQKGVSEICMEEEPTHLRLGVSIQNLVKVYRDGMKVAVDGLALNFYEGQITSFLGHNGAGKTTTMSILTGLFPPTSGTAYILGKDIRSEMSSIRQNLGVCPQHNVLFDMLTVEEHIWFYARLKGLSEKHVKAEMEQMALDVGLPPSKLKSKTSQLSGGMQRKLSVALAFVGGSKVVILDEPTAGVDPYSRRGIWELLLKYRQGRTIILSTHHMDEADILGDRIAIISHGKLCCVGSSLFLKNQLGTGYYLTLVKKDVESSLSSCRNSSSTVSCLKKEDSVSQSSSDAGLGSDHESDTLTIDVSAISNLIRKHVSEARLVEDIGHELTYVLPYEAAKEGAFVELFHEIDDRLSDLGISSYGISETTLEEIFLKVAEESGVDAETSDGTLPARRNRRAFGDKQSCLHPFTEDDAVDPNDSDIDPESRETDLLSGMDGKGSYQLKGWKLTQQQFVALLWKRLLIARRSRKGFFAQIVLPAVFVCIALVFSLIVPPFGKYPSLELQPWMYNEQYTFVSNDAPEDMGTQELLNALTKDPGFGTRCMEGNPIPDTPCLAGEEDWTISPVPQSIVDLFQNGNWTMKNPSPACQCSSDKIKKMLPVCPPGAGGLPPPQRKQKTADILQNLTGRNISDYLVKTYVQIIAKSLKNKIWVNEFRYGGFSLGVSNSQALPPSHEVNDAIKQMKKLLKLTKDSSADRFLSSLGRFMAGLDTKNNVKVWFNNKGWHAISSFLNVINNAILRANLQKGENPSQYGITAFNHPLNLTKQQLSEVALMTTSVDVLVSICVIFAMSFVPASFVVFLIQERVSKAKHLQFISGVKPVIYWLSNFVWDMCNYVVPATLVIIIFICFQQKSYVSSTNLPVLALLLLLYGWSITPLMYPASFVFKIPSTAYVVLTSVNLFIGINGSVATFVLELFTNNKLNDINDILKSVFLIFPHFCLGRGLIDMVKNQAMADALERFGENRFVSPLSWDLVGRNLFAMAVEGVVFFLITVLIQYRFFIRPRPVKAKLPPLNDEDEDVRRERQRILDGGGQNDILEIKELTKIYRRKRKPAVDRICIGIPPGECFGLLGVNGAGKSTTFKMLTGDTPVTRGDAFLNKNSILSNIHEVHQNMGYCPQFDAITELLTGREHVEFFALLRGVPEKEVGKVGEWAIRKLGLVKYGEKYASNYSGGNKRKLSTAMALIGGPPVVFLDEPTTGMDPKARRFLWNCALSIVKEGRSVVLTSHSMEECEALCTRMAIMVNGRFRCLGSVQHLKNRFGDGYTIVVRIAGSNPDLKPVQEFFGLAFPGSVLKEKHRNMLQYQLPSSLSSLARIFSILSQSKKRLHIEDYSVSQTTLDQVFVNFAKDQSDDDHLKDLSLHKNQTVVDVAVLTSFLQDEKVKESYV
Test: Induction of ABCA1-mediated [3H]cholesterol efflux in mouse RAW 264.7 macrophages after 24 hrs

EC50 [µM]	Structure (SMILES)
0.6	CCCCCCCC[C@H](NC(=O)[C@H](CCC(=O)O)NC(=O)[C@H](CC(N)=O)NC(=O)[C@H](CC(C)C)NC(=O)[C@H](CCCCN)NC(=O)[C@H](CCC(=O)O)NC(=O)[C@H](CCCNC(=N)N)NC(=O)[C@H](CCCCCCCC)NC(=O)[C@H](CCC(=O)O)NC(=O)[C@H](CC(=O)O)NC(=O)[C@H](CC(C)C)NC(=O)[C@@H](NC(=O)[C@@H]1CCCN1C(C)=O)C(C)C)C(=O)N[C@@H](CC(C)C)C(=O)N[C@@H](CCC(=O)O)C(=O)N[C@@H](C)C(=O)N[C@@H](CC(C)C)C(=O)N[C@@H](CCCCN)C(=O)N[C@@H](CCC(N)=O)C(=O)N[C@@H](CCCCN)C(=O)N[C@@H](CC(C)C)C(=O)N[C@@H](CCCCN)C(N)=O (Ac-PVLDE[Gly(octyl)]REKLNE[Gly(octyl)]LEALKQKLK-NH2)
6.7	C=CCCCCC[C@H](NC(=O)[C@H](CCC(N)=O)NC(=O)[C@H](CCCCN)NC(=O)[C@H](CC(C)C)NC(=O)[C@H](C)NC(=O)[C@H](CCC(=O)O)NC(=O)[C@H](CC(C)C)NC(=O)[C@H](CCCCCC=C)NC(=O)[C@H](CCC(=O)O)NC(=O)[C@H](CC(N)=O)NC(=O)[C@H](CC(C)C)NC(=O)[C@H](CCCCN)NC(=O)[C@H](CCC(=O)O)NC(=O)[C@H](CCCNC(=N)N)NC(=O)[C@H](CCCCCC=C)NC(=O)[C@H](CCC(=O)O)NC(=O)[C@H](CC(=O)O)NC(=O)[C@H](CC(C)C)NC(=O)[C@H](CCCCCC=C)NC(=O)[C@@H]1CCCN1C(C)=O)C(=O)N[C@@H](CC(C)C)C(=O)N[C@@H](CCCCN)C(N)=O (Ac-P[Ala(5-hexenyl)]LDE[Ala(5-hexenyl)]REKLNE[Ala(5-hexenyl)]LEALKQ[Ala(5-hexenyl)]LK-NH2)
> 100	C=CCCCC[C@@H](NC(=O)[C@H](CCC(=O)O)NC(=O)[C@H](CCC(=O)O)NC(=O)[C@H](CC(N)=O)NC(=O)[C@H](CC(C)C)NC(=O)[C@H](CCCCN)NC(=O)[C@H](CCC(=O)O)NC(=O)[C@H](CCCN=C(N)N)NC(=O)[C@H](Cc1ccccc1)NC(=O)[C@H](CCC(=O)O)NC(=O)[C@H](CC(=O)O)NC(=O)[C@H](CC(C)C)NC(=O)[C@@H](NC(=O)[C@@H]1CCCN1C(C)=O)C(C)C)C(=O)N[C@@H](CCC(=O)O)C(=O)N[C@@H](C)C(=O)N[C@@H](CC(C)C)C(=O)N[C@@H](CCCCN)C(=O)N[C@@H](CCC(N)=O)C(=O)N[C@@H](CCCCN)C(=O)N[C@@H](CC(C)C)C(=O)N[C@@H](CCCCN)C(N)=O
> 100	C=CCCCC[C@H](NC(=O)[C@H](C)NC(=O)[C@H](CCC(=O)O)NC(=O)[C@H](CC(C)C)NC(=O)[C@H](CCC(=O)O)NC(=O)[C@H](CCC(=O)O)NC(=O)[C@H](CC(N)=O)NC(=O)[C@H](CC(C)C)NC(=O)[C@H](CCCCN)NC(=O)[C@H](CCC(=O)O)NC(=O)[C@H](CCCNC(=N)N)NC(=O)[C@H](Cc1ccccc1)NC(=O)[C@H](CCC(=O)O)NC(=O)[C@H](CC(=O)O)NC(=O)[C@H](CC(C)C)NC(=O)[C@@H](NC(=O)[C@@H]1CCCN1C(C)=O)C(C)C)C(=O)N[C@@H](CCCCN)C(=O)N[C@@H](CCC(N)=O)C(=O)N[C@@H](CCCCN)C(=O)N[C@@H](CC(C)C)C(=O)N[C@@H](CCCCN)C(N)=O
> 100	C=CCCCCC[C@H](NC(=O)[C@H](CCCCN)NC(=O)[C@H](CCC(=O)O)NC(=O)[C@H](CCCNC(=N)N)NC(=O)[C@H](Cc1ccccc1)NC(=O)[C@H](CCC(=O)O)NC(=O)[C@H](CC(=O)O)NC(=O)[C@H](CC(C)C)NC(=O)[C@@H](NC(=O)[C@@H]1CCCN1C(C)=O)C(C)C)C(=O)N[C@@H](CC(N)=O)C(=O)N[C@@H](CCC(=O)O)C(=O)N[C@@H](CCC(=O)O)C(=O)N[C@@H](CC(C)C)C(=O)N[C@@H](CCC(=O)O)C(=O)N[C@@H](C)C(=O)N[C@@H](CC(C)C)C(=O)N[C@@H](CCCCN)C(=O)N[C@@H](CCC(N)=O)C(=O)N[C@@H](CCCCN)C(=O)N[C@@H](CC(C)C)C(=O)N[C@@H](CCCCN)C(N)=O
5	C=CCCCCC[C@H](NC(=O)[C@H](CCC(N)=O)NC(=O)[C@H](CCCCN)NC(=O)[C@H](CC(C)C)NC(=O)[C@H](C)NC(=O)[C@H](CCC(=O)O)NC(=O)[C@H](CC(C)C)NC(=O)[C@H](CCCCCC=C)NC(=O)[C@H](CCC(=O)O)NC(=O)[C@H](CC(N)=O)NC(=O)[C@H](CC(C)C)NC(=O)[C@H](CCCCN)NC(=O)[C@H](CCC(=O)O)NC(=O)[C@H](CCCN=C(N)N)NC(=O)[C@H](Cc1ccccc1)NC(=O)[C@H](CCC(=O)O)NC(=O)[C@H](CC(=O)O)NC(=O)[C@H](CC(C)C)NC(=O)[C@H](CCCCCC=C)NC(=O)[C@@H]1CCCN1C(C)=O)C(=O)N[C@@H](CC(C)C)C(=O)N[C@@H](CCCCN)C(N)=O (Ac-P[Ala(5-hexenyl)]LDEFREKLNE[Ala(5-hexenyl)]LEALKQ[Ala(5-hexenyl)]LK-NH2)
> 100	C=CCCCC[C@@H](NC(=O)[C@@H]1CCCN1C(C)=O)C(=O)N[C@@H](CC(C)C)C(=O)N[C@@H](CC(=O)O)C(=O)N[C@@H](CCC(=O)O)C(=O)N[C@@H](Cc1ccccc1)C(=O)N[C@@H](CCCN=C(N)N)C(=O)N[C@@H](CCC(=O)O)C(=O)N[C@@H](CCCCN)C(=O)N[C@@H](CC(C)C)C(=O)N[C@@H](CC(N)=O)C(=O)N[C@@H](CCC(=O)O)C(=O)N[C@@H](CCC(=O)O)C(=O)N[C@@H](CC(C)C)C(=O)N[C@@H](CCC(=O)O)C(=O)N[C@@H](C)C(=O)N[C@@H](CC(C)C)C(=O)N[C@@H](CCCCN)C(=O)N[C@@H](CCC(N)=O)C(=O)N[C@@H](CCCCN)C(=O)N[C@@H](CC(C)C)C(=O)N[C@@H](CCCCN)C(N)=O
> 100	C=CCCCC[C@H](NC(=O)[C@@H]1CCCN1C(C)=O)C(=O)N[C@@H](CC(C)C)C(=O)N[C@@H](CC(=O)O)C(=O)N[C@@H](CCC(=O)O)C(=O)N[C@@H](Cc1ccccc1)C(=O)N[C@@H](CCCN=C(N)N)C(=O)N[C@@H](CCC(=O)O)C(=O)N[C@@H](CCCCN)C(=O)N[C@@H](CC(C)C)C(=O)N[C@@H](CC(N)=O)C(=O)N[C@@H](CCC(=O)O)C(=O)N[C@@H](CCC(=O)O)C(=O)N[C@@H](CC(C)C)C(=O)N[C@@H](CCC(=O)O)C(=O)N[C@@H](C)C(=O)N[C@@H](CC(C)C)C(=O)N[C@@H](CCCCN)C(=O)N[C@@H](CCC(N)=O)C(=O)N[C@@H](CCCCN)C(=O)N[C@@H](CC(C)C)C(=O)N[C@@H](CCCCN)C(N)=O
9.5	C=CCCCCC[C@@H](NC(=O)[C@H](CCC(=O)O)NC(=O)[C@H](CC(N)=O)NC(=O)[C@H](CC(C)C)NC(=O)[C@H](CCCCN)NC(=O)[C@H](CCC(=O)O)NC(=O)[C@H](CCCN=C(N)N)NC(=O)[C@H](Cc1ccccc1)NC(=O)[C@H](CCC(=O)O)NC(=O)[C@H](CC(=O)O)NC(=O)[C@H](CC(C)C)NC(=O)[C@@H](NC(=O)[C@@H]1CCCN1C(C)=O)C(C)C)C(=O)N[C@@H](CC(C)C)C(=O)N[C@@H](CCC(=O)O)C(=O)N[C@@H](C)C(=O)N[C@@H](CC(C)C)C(=O)N[C@@H](CCCCN)C(=O)N[C@@H](CCC(N)=O)C(=O)N[C@@H](CCCCN)C(=O)N[C@@H](CC(C)C)C(=O)N[C@@H](CCCCN)C(N)=O (Ac-PVLDEFREKLNE[dGly(6-heptenyl)]LEALKQKLK-NH2)
213	C=CCCCC[C@H](NC(=O)[C@H](CCC(N)=O)NC(=O)[C@H](CCCCN)NC(=O)[C@H](CC(C)C)NC(=O)[C@H](C)NC(=O)[C@H](CCC(=O)O)NC(=O)[C@H](CC(C)C)NC(=O)[C@H](CCC(=O)O)NC(=O)[C@H](CCC(=O)O)NC(=O)[C@H](CC(N)=O)NC(=O)[C@H](CC(C)C)NC(=O)[C@H](CCCCN)NC(=O)[C@H](CCC(=O)O)NC(=O)[C@H](CCCNC(=N)N)NC(=O)[C@H](Cc1ccccc1)NC(=O)[C@H](CCC(=O)O)NC(=O)[C@H](CC(=O)O)NC(=O)[C@H](CC(C)C)NC(=O)[C@@H](NC(=O)[C@@H]1CCCN1C(C)=O)C(C)C)C(=O)N[C@@H](CC(C)C)C(=O)N[C@@H](CCCCN)C(N)=O
